Experimental data taken from US20240122906A1, “METHODS OF TREATING MELANOMA WITH RIPRETINIB” (Deciphera Pharmaceuticals, LLC, priority 2021, published 2024).

How the values were obtained:
[1] = Coadministration of ripretinib with a strong CYP3A inhibitor (itraconazole): exposure; type: in vivo; conditions: coadministration of ripretinib with itraconazole (strong CYP3A inhibitor and P-gp inhibitor)
[2] = Coadministration of ripretinib with a proton-pump inhibitor (pantoprazole): exposure; type: in vivo; conditions: for differences in plasma exposure: ripretinib coadministered with pantoprazole
Description: The effect of a proton-pump inhibitor on the exposure of ripretinib was evaluated.

[3] = Food effect (high-fat meal) on ripretinib and Compound A exposure; type: in vivo; conditions: for AUC0-24h higher by / Cmax higher by: ripretinib 150 mg dose with a high-fat meal
Description: The effect of a high-fat breakfast on ripretinib and Compound A exposure was evaluated. A high fat meal consisted of approximately 150, 250, and 500-600 calories from protein, carbohydrate, and fat, respectively. […] Therefore, ripretinib may be taken with or without food at approximately same time each day.

patients with melanoma = experiment: Phase 1 study of treating melanoma with ripretinib (efficacy, RECIST 1.1); type: in vivo, human
Description: This is a Phase 1 study to evaluate the efficacy of ripretinib in treating patients with melanoma. An efficacy cohort of 26 patients were enrolled. Each patient was administered 150 mg of ripretinib daily in repeated 28-day cycles until disease progression, unacceptable toxicity, or consent withdrawal. Patients who had disease progression at ripretinib 150 mg QD were allowed to escalate to 150 mg twice daily (BID) after the completion of Cycle 2. The efficacy endpoints includes Objective Response Rate (ORR), Disease Control Rate (DCR), Duration of Response (DOR) Time to Best Response (TBR), and progression-free survival (PFS) as determined by radiologic review using Response Evaluation Criteria in Solid Tumors (RECIST 1.1).
Prior tyrosine kinase inhibitor (TKI) treatment analysis. […] 17 of the 25 members of the cohort received no prior TKI and, among these members, the mPFS was determined to be 10.2 months and the ORR was determined to be 29.4% (5 out of 17 members). 8 of the 25 members received TKI treatment prior to receiving ripretinib and, among these members, the mPFS was determined to be 2.9 months and the ORR was determined to be 11% (1 out of […] members).
Mutational Analysis. An analysis of the efficacy of ripretinib based on baseline mutations of melanoma among the efficacy cohort was performed. […] L576P (Exon 11), K642E (Exon 13) and N822K/Y (Exon 17) were determined to be the most prevalent baseline mutations in this cohort.

Solubility = type: physicochemical
[4] = investigator assessment, Total (N = 26)
[5] = investigator assessment, Total, n 6

CCn1c(=O)c(-c2cc(NC(=O)Nc3ccccc3)c(F)cc2Br)cc2cnc(N)cc21 [Compound A]
increase in AUC0-inf [1]: 99%
increase in Cmax [1]: no change
differences in plasma exposure [2]: No clinically significant differences
AUC0-24h higher by [3]: 47%
Cmax higher by [3]: 66%

CCn1c(=O)c(-c2cc(NC(=O)Nc3ccccc3)c(F)cc2Br)cc2cnc(NC)cc21 [ripretinib]
median PFS (patients with melanoma; 150 mg daily, 28-day cycles, whole efficacy cohort): 7.3 months
confirmed ORR (patients with melanoma; Exon 11 patients): 44%
median PFS (patients with melanoma; Exon 11 patients): 10.2 months
median duration of response (patients with melanoma; Exon 11 patients): 10.5 months
median time to confirmed response (patients with melanoma; Exon 11 patients): 1.9 months
confirmed ORR (patients with melanoma; Exon 17 patients): 18%
median PFS (patients with melanoma; Exon 17 patients): 13.6 months
median duration of response (patients with melanoma; Exon 17 patients): 8.1 months
median time to confirmed response (patients with melanoma; Exon 17 patients): 1.7 months
Confirmed Partial Response, % (patients with melanoma; KIT Exon 11 (N = 9)): (44.4) %
No Response Assessment, % (patients with melanoma; KIT Exon 11 (N = 9)): (11.1) %
Progressive Disease, % (patients with melanoma; KIT Exon 11 (N = 9)): (11.1) %
Stable Disease (≥6 wks), % (patients with melanoma; KIT Exon 11 (N = 9)): (33.3) %
Progressive Disease, % (patients with melanoma; KIT Exon 13 (N = 4)): (50.0) %
Stable Disease (≥6 wks), % (patients with melanoma; KIT Exon 13 (N = 4)): (50.0) %
Confirmed Complete Response, % (patients with melanoma; KIT Exon 17 (N = 11)): (9.1) %
Confirmed Partial Response, % (patients with melanoma; KIT Exon 17 (N = 11)): (9.1) %
Progressive Disease, % (patients with melanoma; KIT Exon 17 (N = 11)): (36) %
Stable Disease (≥6 wks), % (patients with melanoma; KIT Exon 17 (N = 11)): (45.5) %
Progressive Disease, % (patients with melanoma; KIT Exon 18 (N = 1)): 100.0%
Stable Disease (≥6 wks), % (patients with melanoma; KIT Exon Amplification (N = 1)): 100.0%
Objective Response Rate, % (patients with melanoma; investigator assessment, Total): (23.1) %
Time to Response, Median (patients with melanoma; investigator assessment, Total): 1.9 Months
Best Overall Response: Confirmed Complete Response, % (patients with melanoma; [4]): (3.8) %
Best Overall Response: Confirmed Partial Response, % (patients with melanoma; [4]): (19.2) %
Best Overall Response: No Response Assessment, % (patients with melanoma; [4]): (4) %
Best Overall Response: Progressive Disease, % (patients with melanoma; [4]): (31) %
Best Overall Response: Stable Disease (≥6 weeks duration), % (patients with melanoma; [4]): (42.3) %
Duration of Response, Max (patients with melanoma; [5]): 28.6 Months
Duration of Response, Mean (patients with melanoma; [5]): 10.5 Months
Duration of Response, Median (patients with melanoma; [5]): 9.1 Months
Duration of Response, Min (patients with melanoma; [5]): 4.1 Months
mPFS (patients with melanoma; no prior TKI treatment): 10.2 months
ORR (patients with melanoma; no prior TKI treatment (5 out of 17)): 29.4%
mPFS (patients with melanoma; prior TKI treatment): 2.9 months
ORR (patients with melanoma; prior TKI treatment (1 out of 9)): 11%
confirmed ORR (patients with melanoma; radiologic review using RECIST version 1.1, whole cohort (6 out of 26)): 23.1%
confirmed and unconfirmed ORR (patients with melanoma; whole cohort): 30.8%
median DOR (mDOR) (patients with melanoma; whole cohort): 9.1 months
increase in AUC0-inf [1]: 99%
increase in Cmax [1]: 36%
effect on ripretinib exposure ([2]; 40 mg QD pantoprazole with 150 mg QD ripretinib): did not affect ripretinib exposure
differences in plasma exposure [2]: No clinically significant differences
food effect, clinical significance ([3]; based on exposure-response analysis): not considered to be clinically significant
AUC0-24h higher by [3]: 30%
Cmax higher by [3]: 22%
solubility (Solubility): pH-dependent solubility
